We go through one compound from PMC12384620, “Hit-to-Lead Studies of Pyrazinylpiperazines against Visceral Leishmaniasis: Pharmacokinetic Profile and In Vivo Efficacy of Potent Compounds against Leishmania infantum” (ACS Pharmacology & Translational Science, 2025).

The nature of series [1]: Experimental lipophilicity elog(D) at pH 7.4 by retention time. It counts as physicochemical. The following applies: pH 7.4, chromatographic. The protocol: The analysis was performed using LC-MS/MS (liquid chromatography-tandem mass spectrometry). The chromatography system used was a Prominence UFLC (Shimadzu Corporation, Kyoto, Japan), interfaced with a LCMS-8045 triple quadrupole mass spectrometer (Shimadzu Corporation, Kyoto, Japan) equipped with an electrospray ionization source (ESI).
For the determination of the distribution coefficient (elog(D)), a methodology based on the retention time of molecules in the stationary phase was used. The chromatogram was achieved on a Supelco Ascentis express RP amide HPLC column (5 cm x 2.1 mm, […]), using 5% methanol in 10 mM ammonium acetate pH 7.4 (A) and 100% methanol (B) as mobile phases. The mobile phase was eluted in binary gradient mode, as follows: 0 min: 95% A; 0.3 min: 100% A; 5.2 min: 0% A; 5.6 min: 0% A; 5.8 min: 100% A; 7.0 min: 100% A. The total run time was 7 min, and 5 μL of each sample were injected. The solutions of tested compounds were prepared at a concentration of 1.0 mg/mL in compound by adding the stock solution to a (1:1) mix of mobile phases A:B (internal standard at 200 nM), and the DMSO concentration was lower than 2%. […]

The subject of another series is L. infantum::tdTomato. The series is classed as in vivo, mouse. Conditions: for parasitemia reduction in the spleen / parasitemia reduction in the liver: 20 dpi, vs untreated control. The protocol: BALB/c mice (male, 6 to 8 weeks old, 18 to 20 g) were inoculated intravenously (tail vein) with 2 × 10^7 late-log-phase L. infantum promastigotes from Li::tdTomato lines, and randomly assigned into one of the four treatment groups (six mice per group). After 7 days of infection, […] was administered intraperitoneally in a single dose 500 mg/kg/day meglumine antimoniate (Glucantime, Sanofi Medley), both groups treated with 2 received two daily intraperitoneal injections totaling either 50 mg/kg/day or 100 mg/kg/day of 2, and the control group was administered the vehicle solution. For the intraperitoneal injection, 2 was formulated as follows: a stock solution of 2 in DMSO (100 mg/mL) was prepared daily, and a solution of 70% PBS1X, 20% PEG 400 (Polyethylene Glycol 400, Sigma-Aldrich), 0.16% Tween 80 and 10% of 2 (from the stock solution) was prepared. The control group was also administered this solution, replacing 2 with 10% DMSO. All mice were euthanized 3 days after the end of the treatment, and the liver and spleen of each animal were collected.
The number of viable parasites in each organ was determined using a quantitative limiting dilution assay. Briefly, the organs were macerated using an Ultra-Turrax disperser (IKA-Werke GmbH & Co. KG., Staufen, Germany), and a tissue homogenate was obtained with 1 mL of M199 medium. Each tissue homogenate was sequentially diluted (10-fold) in 96-well flat-bottom microtiter black plates and incubated at 26 °C for 10 days. The wells containing motile promastigotes were identified with an inverted microscope (Axiovert 25, Zeiss), and the parasite burden was determined from the highest dilution at which promastigotes had grown after 10 days of incubation.

Where two headings read alike, the source gives them in different places.

Regarding `O=C(c1ccc(O)cc1)N1CCN(c2cnccn2)CC1` [Compound 2, (4-Hydroxyphenyl)(4-(pyrazin-2-yl)piperazin-1-yl)methanone], the “elog(D)” value in series [1] is listed as 1.64. Also, the “parasitemia reduction in the spleen” value in the series on L. infantum::tdTomato (50 mg/kg/day i.p., 10 days) is 80.0%; in the series with L. infantum::tdTomato (100 mg/kg/day i.p., 10 days), 91.1%. Besides, the “parasitemia reduction in the liver” value with L. infantum::tdTomato (50 mg/kg/day i.p., 10 days, not significant) was 44.4%; with L. infantum::tdTomato (100 mg/kg/day i.p., 10 days), 90.0%. Besides, the parasitemia reduction entry with L. infantum::tdTomato (100 mg/kg/day, 7-day treatment (as printed in the conclusion)) is recorded as “over 90%”. Besides, the “death among treated mice” value in the series with L. infantum::tdTomato (50 and 100 mg/kg/day i.p., 10 days) was “No death”. Also, in the series on L. infantum::tdTomato (50 and 100 mg/kg/day i.p., 10 days, infected BALB/c mice), the “external signs of acute toxicity during and after treatment” value is reported as “No external signs of acute toxicity”.
